Assay results: patent US10087166B2, “Cyclic amine azaheterocyclic carboxamides” (Merck Patent GmbH, priority 2010, dated 2018)

The compounds below were run against T1, P70S6K (Homo sapiens, UniProt P23443, T412E) (assay: P70S6K enzyme assay). Details: P70S6K T412E mutant 3 nM, 24 μM ATP, FITC-AHA-AKRRRLSSLRA-OH substrate, 90 min at 25° C.; read-out: IC50p70S6K.
T1 construct: purchased Millipore
Type: biochemical
Procedure: P70S6K inhibitor compounds are diluted and plated in 96 well plates. A reaction mixture including the following components is then added to the compound plate to initiate the enzyme reaction; P70S6K (3 nM, T412E mutant, Millipore) is mixed with 24 μM ATP in an assay buffer containing 100 mM Hepes (pH 7.5), 5 mM MgCl2, 1 mM DTT, 0.015% Brij and 1 μM of the substrate peptide FITC-AHA-AKRRRLSSLRA-OH (derived from the S6 ribosomal protein sequence, FITC=fluorescein isothiocyanate, AHA=6-aminohexanoic acid). The reaction is incubated for 90 min at 25° C., before the addition of 10 mM EDTA to stop the reaction. The proportion of substrate and product (phosphorylated) peptide is analyzed on a Caliper Life Sciences Lab Chip 3000, using a pressure of −1.4 psi, and upstream and downstream voltages of −3000 and −700 respectively. Product peaks are resolved before substrate peaks on the resulting chromatograms.
To assess the inhibitory potential of the compounds, IC50-values were determined, as shown in Chemical Synthesis section above.

T1 sequence (P23443 whole entry T412E): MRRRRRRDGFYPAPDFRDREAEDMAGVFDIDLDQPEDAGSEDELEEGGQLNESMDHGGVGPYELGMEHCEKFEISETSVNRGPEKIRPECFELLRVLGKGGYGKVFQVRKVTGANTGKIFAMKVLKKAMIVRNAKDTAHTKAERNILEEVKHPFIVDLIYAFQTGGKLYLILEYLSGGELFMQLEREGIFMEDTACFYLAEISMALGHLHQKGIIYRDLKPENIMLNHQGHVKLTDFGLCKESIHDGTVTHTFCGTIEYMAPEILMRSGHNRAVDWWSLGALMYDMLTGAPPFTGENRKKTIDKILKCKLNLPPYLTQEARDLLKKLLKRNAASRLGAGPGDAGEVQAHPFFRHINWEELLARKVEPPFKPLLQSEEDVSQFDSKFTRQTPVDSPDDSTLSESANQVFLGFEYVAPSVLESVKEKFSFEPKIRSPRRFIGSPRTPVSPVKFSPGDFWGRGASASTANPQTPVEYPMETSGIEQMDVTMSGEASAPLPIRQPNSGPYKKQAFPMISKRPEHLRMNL

Compound | IC50
NC(=O)c1cccc2c(N[C@H]3CNC[C@@H]3c3cccc(F)c3)ncnc12 (racemic) [compound 2, 4-((4-(3-fluorophenyl)pyrrolidin-3-yl)amino)quinazoline-8-carboxamide] | 3 nM
NC(=O)c1cccc2c(N[C@H]3CNC[C@@H]3c3ccccc3)ncnc12 (racemic) [compound 3, 4-((4-phenylpyrrolidin-3-yl)amino)quinazoline-8-carboxamide] | 4.9 nM
NC(=O)c1cccc2c(NC3CNCC3c3cccc(Cl)c3)ncnc12 (racemic) [compound 9, 4-((4-(3-chlorophenyl)pyrrolidin-3-yl)amino)quinazoline-8-carboxamide] | 1.3 nM
NC(=O)c1cccc2c(NC3CNCC3c3c(F)cccc3Cl)ncnc12 (racemic) [compound 10, 4-((4-(2-chloro-6-fluorophenyl)pyrrolidin-3-yl)amino)-quinazoline-8-carboxamide] | 7 nM
CN1CC(Nc2ncnc3c(C(N)=O)cccc23)C(c2cccc(F)c2)C1 (racemic) [compound 12, 4-((4-(3-fluorophenyl)-1-methylpyrrolidin-3-yl)amino)quinazoline-8-carboxamide] | 23 nM
Cc1cc(C(N)=O)c2ncnc(NC3CNCC3c3ccccc3)c2c1 (racemic) [compound 15, 6-methyl-4-((4-phenylpyrrolidin-3-yl)amino)quinazoline-8-carboxamide] | 349 nM
Cc1nc(NC2CNCC2c2ccccc2)c2cccc(C(N)=O)c2n1 (racemic) [compound 16, 2-methyl-4-((4-phenylpyrrolidin-3-yl)amino)quinazoline-8-carboxamide] | 6 nM
NC(=O)c1cccc2c(N[C@@H]3CNCC[C@H]3c3ccccc3)ncnc12 (racemic) [compound 27, 4-((4-phenylpiperidin-3-yl)amino)quinazoline-8-carboxamide] | 6.3 nM
NC(=O)c1cccc2c(N[C@@H]3CNCC[C@H]3c3cccc(F)c3)ncnc12 (racemic) [compound 28, 4-((4-(3-fluorophenyl)piperidin-3-yl)amino)quinazoline-8-carboxamide] | 1.8 nM
NC(=O)c1cccc2c(N[C@@H]3CNCC[C@H]3c3cccc(C(F)(F)F)c3)ncnc12 (racemic) [compound 30, 4-((4-(3-(trifluoromethyl)phenyl)piperidin-3-yl)amino)quinazoline-8-carboxamide] | 2.1 nM
Cc1cccc([C@@H]2CCNC[C@H]2Nc2ncnc3c(C(N)=O)cccc23)c1 (racemic) [compound 31, 4-((4-(m-tolyl)piperidin-3-yl)amino)quinazoline-8-carboxamide] | 3.1 nM
NC(=O)c1cccc2c(N[C@@H]3CNCC[C@H]3c3ccc(F)cc3)ncnc12 (racemic) [compound 32, 4-((4-(4-fluorophenyl)piperidin-3-yl)amino)quinazoline-8-carboxamide] | 3.2 nM
Cc1ccc(C2CCN(C(=O)OCc3ccccc3)CC2Nc2ncnc3c(C(N)=O)cccc23)cc1F (racemic) [compound 35, Benzyl 3-((8-carbamoylquinazolin-4-yl)amino)-4-(3-fluoro-4-methylphenyl)piperidine-1-carboxylate] | 1000 nM
Cc1nc(N[C@@H]2CNCC[C@H]2c2cccc(F)c2)c2cccc(C(N)=O)c2n1 (racemic) [compound 37, 4-((4-(3-fluorophenyl)piperidin-3-yl)amino)-2-methylquinazoline-8-carboxamide] | 2.5 nM
CCc1nc(N[C@@H]2CNCC[C@H]2c2cccc(F)c2)c2cccc(C(N)=O)c2n1 (racemic) [compound 38, 2-ethyl-4-((4-(3-fluorophenyl)piperidin-3-yl)amino)quinazoline-8-carboxamide] | 1.7 nM
CCc1nc(N[C@@H]2CNCC[C@H]2c2ccccc2)c2cccc(C(N)=O)c2n1 (racemic) [compound 39, 2-ethyl-4-((4-phenylpiperidin-3-yl)amino)quinazoline-8-carboxamide] | 4.8 nM
Cc1nc(N[C@@H]2CNCC[C@H]2c2ccccc2)c2cccc(C(N)=O)c2n1 (racemic) [compound 40, 2-methyl-4-((4-phenylpiperidin-3-yl)amino)quinazoline-8-carboxamide] | 6.4 nM
NC(=O)c1cccc2c(N[C@H]3CNC[C@@H]3c3cc(F)cc(C(F)(F)F)c3)ncnc12 (racemic) [compound 45] | 1.9 nM
NC(=O)c1cccc2c(N[C@H]3CNC[C@@H]3c3cccc(C(F)(F)F)c3)ncnc12 (racemic) [compound 48] | 1.7 nM

Compound | IC50
NC(=O)c1cccc2c(N[C@H]3CNC[C@@H]3c3ccc(C(F)(F)F)cc3)ncnc12 (racemic) [compound 52] | 6.5 nM
NC(=O)c1cccc2c(N[C@@H]3CNC[C@@H]3c3cccc(OC(F)(F)F)c3)ncnc12 (racemic) [compound 55] | 9 nM
NC(=O)c1cccc2c(N[C@H]3CNC[C@@H]3c3cccc(OC(F)(F)F)c3)ncnc12 (racemic) [compound 56] | 2.4 nM
NC(=O)c1cccc2c(N[C@H]3CNC[C@@H]3c3ccc(OC(F)(F)F)cc3)ncnc12 (racemic) [compound 59] | 1.7 nM
NC(=O)c1cccc2c(N[C@H]3CNC[C@@H]3c3ccc4ncccc4c3)ncnc12 (racemic) [compound 69] | 3.2 nM
Cc1cc([C@H]2CNC[C@@H]2Nc2ncnc3c(C(N)=O)cccc23)ccc1F (racemic) [compound 74] | 8.8 nM
NC(=O)c1cccc2c(N[C@H]3CNC[C@@H]3c3cccc(Br)c3)ncnc12 (racemic) [compound 85] | 1.8 nM
N#Cc1cccc([C@@H]2CNC[C@@H]2Nc2ncnc3c(C(N)=O)cccc23)c1 (racemic) [compound 86] | 14 nM
NC(=O)c1cccc2c(N[C@H]3CNC[C@@H]3c3ccc4c(c3)CCO4)ncnc12 (racemic) [compound 89] | 3.2 nM
Cc1c(F)cccc1[C@H]1CNC[C@@H]1Nc1ncnc2c(C(N)=O)cccc12 (racemic) [compound 92] | 2 nM
Cc1nc(N[C@H]2CNC[C@@H]2c2ccccc2Cl)c2cccc(C(N)=O)c2n1 (racemic) [compound 98] | 2.7 nM
NC(=O)c1cccc2c(N[C@H]3CNC[C@@H]3c3ccc(Cl)c(F)c3)ncnc12 (racemic) [compound 99] | 0.088 nM
NC(=O)c1cccc2c(N[C@H]3CNC[C@@H]3c3ccc(F)c(Cl)c3)ncnc12 (racemic) [compound 100] | 1.4 nM
COc1ccc([C@H]2CNC[C@@H]2Nc2ncnc3c(C(N)=O)cccc23)cc1F (racemic) [compound 102] | 2.9 nM
Cc1nc(N[C@H]2CNC[C@@H]2c2ccc(Cl)c(F)c2)c2cccc(C(N)=O)c2n1 (racemic) [compound 103] | 1.8 nM
NC(=O)c1cccc2c(N[C@H]3CNC[C@@H]3c3cc(F)c(F)cc3F)ncnc12 (racemic) [compound 105, 4-(((3R,4S)-4-(2,4,5-trifluorophenyl)pyrrolidin-3-yl)amino)quinazoline-8-carboxamide] | 420 nM
CCc1nc(N[C@@H]2CNC[C@H]2c2cccc(F)c2)c2cccc(C(N)=O)c2n1 (racemic) [compound 107] | 5.5 nM
NC(=O)c1cccc2c(N[C@@H]3CNC[C@H]3c3cccc(Cl)c3F)ncnc12 (racemic) [compound 109] | 2.1 nM
NC(=O)c1cccc2c(N[C@H]3CNC[C@@H]3c3ccc4ccccc4c3)ncnc12 (racemic) [compound 110] | 1.54 nM
